In US8541407B2 (ArQule, Inc., priority 2010, dated 2013):
Counter-ions that a name gives are not always drawn.

Molecular target: AKT1 (Homo sapiens (Human), UniProt P31749)
Assay: Inactive Akt Alpha Screen Assay
Conditions: non *labeled: Akt Alpha Screen assay; read-out: AKT1 biochemical assay, IC50
Method: AKT1 activity was assayed using the GSK3-derived biotinylated peptide substrate, crosstide (biotin-[…]), and AlphaScreen™ (Amplified Luminescent Proximity Homogeneous Assay) technology. AKT1 activation was achieved by the addition of the activating kinases PDK1 and MAPKAPK2, lipid vesicles, and ATP. The extent of peptide phosphorylation was determined using a phospho-AKT substrate antibody and acceptor beads conjugated to Protein A and donor beads conjugated to streptavidin that bind to the biotin on the peptide. Excitation of the donor beads converted ambient oxygen to excited singlet oxygen which, when in close proximity to acceptor beads, reacted with acceptor beads resulting in signal amplification. […] The plates were incubated for 30 minutes at room temperature, and then stopped in the dark by the addition of 10 μL stop/detection mixture prepared in assay buffer containing EDTA, AlphaScreen™ Streptavidin Donor and Protein A Acceptor beads, and phospho-AKT substrate antibody for final concentrations of 10 mM EDTA, 500 ng/well of both AlphaScreen™ Streptavidin Donor beads and Protein A Acceptor beads, and phospho-AKT substrate antibody at a final dilution of 1:350. Assay plates were incubated for 90 minutes at room temperature in the dark, and the plates were read on a Perkin Elmer Envision Multilabel plate reader (excitation wavelength: […], emission wavelength: 570 nm). […] Envision Instrument Settings: • Instrument: Perkin Elmer Envision • Plate: 96 well • Program Name: • Excitation: Ex Top • Mirror: General Dual—Slot 2 • Excitation Filter: CFP430 Ex.

AKT1, sequence (P31749 whole entry): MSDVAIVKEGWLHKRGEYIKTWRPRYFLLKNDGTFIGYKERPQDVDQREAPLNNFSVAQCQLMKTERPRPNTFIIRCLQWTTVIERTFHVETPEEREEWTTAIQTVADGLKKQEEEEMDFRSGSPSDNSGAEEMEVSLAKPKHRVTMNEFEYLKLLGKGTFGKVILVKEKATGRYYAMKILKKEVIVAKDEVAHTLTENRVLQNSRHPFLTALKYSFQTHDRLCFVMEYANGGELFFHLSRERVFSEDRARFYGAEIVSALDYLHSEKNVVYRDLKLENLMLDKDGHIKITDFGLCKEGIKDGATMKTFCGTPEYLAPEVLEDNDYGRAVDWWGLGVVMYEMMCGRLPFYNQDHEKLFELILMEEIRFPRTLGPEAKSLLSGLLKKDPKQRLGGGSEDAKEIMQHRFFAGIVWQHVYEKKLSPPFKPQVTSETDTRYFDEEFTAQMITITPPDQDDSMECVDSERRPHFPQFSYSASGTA

IC50	Structure (SMILES)
1100 nM	O=C(NCc1ccc(-c2nnc3n2-c2cccnc2Nc2ccccc2-3)cc1)Nc1cccc(F)c1 [Example 122, 1-(4-(9H-benzo[f]pyrido[2,3-b][1,2,4]triazolo[4,3-d][1,4]diazepin-3-yl)benzyl)-3-(3-fluorophenyl)urea]
780 nM	COc1cccc(CNC(=O)NC2CCN(Cc3ccc(-c4nnc5n4-c4cccnc4Nc4ccccc4-5)cc3)CC2)c1 [Example 171, 1-(1-(4-(9H-benzo[f]pyrido[2,3-b][1,2,4]triazolo[4,3-d][1,4]diazepin-3-yl)benzyl)piperidin-4-yl)-3-(3-methoxybenzyl)urea]
700 nM	COc1ccccc1NC(=O)NC1CCN(Cc2ccc(-c3nnc4n3-c3cccnc3Nc3ccccc3-4)cc2)CC1 [Example 183, 1-(1-(4-(9H-benzo[f]pyrido[2,3-b][1,2,4]triazolo[4,3-d][1,4]diazepin-3-yl)benzyl)piperidin-4-yl)-3-(2-methoxyphenyl)urea]
1900 nM	c1ccc(CNCc2ccc(-c3nnc4n3-c3cccnc3Nc3ccccc3-4)cc2)cc1 [Example 66, N-(4-(9H-benzo[f]pyrido[2,3-b][1,2,4]triazolo[4,3-d][1,4]diazepin-3-yl)benzyl)-1-phenylmethanamine]
220 nM	O=S(=O)(NCc1ccc(-c2nnc3n2-c2cccnc2Nc2ccccc2-3)cc1)c1ccc(Cl)cc1 [Example 119, N-(4-(9H-benzo[f]pyrido[2,3-b][1,2,4]triazolo[4,3-d][1,4]diazepin-3-yl)benzyl)-4-chlorobenzenesulfonamide]
680 nM	O=C(Nc1ccc(-c2nnc3n2-c2cccnc2Nc2ccccc2-3)cc1)c1ccc2ccccc2c1 [Example 28, N-(4-(9H-benzo[f]pyrido[2,3-b][1,2,4]triazolo[4,3-d][1,4]diazepin-3-yl)phenyl)-2-naphthamide]
4400 nM	CC(C)CCNCc1ccc(-c2nnc3n2-c2cccnc2Nc2ccccc2-3)cc1 [Example 68, N-(4-(9H-benzo[f]pyrido[2,3-b][1,2,4]triazolo[4,3-d][1,4]diazepin-3-yl)benzyl)-3-methylbutan-1-amine]
240 nM	Cn1cnc(S(=O)(=O)NCc2ccc(-c3nnc4n3-c3cccnc3Nc3ccccc3-4)cc2)c1 [Example 103, N-(4-(9H-benzo[f]pyrido[2,3-b][1,2,4]triazolo[4,3-d][1,4]diazepin-3-yl)benzyl)-1-methyl-1H-imidazole-4-sulfonamide]
2200 nM	COc1cccc(C(=O)N2CCN(Cc3ccc(-c4nnc5n4-c4cccnc4Nc4ccccc4-5)cc3)CC2)c1 [Example 138, (4-(4-(9H-benzo[f]pyrido[2,3-b][1,2,4]triazolo[4,3-d][1,4]diazepin-3-yl)benzyl)piperazin-1-yl)(3-methoxyphenyl)methanone]
4500 nM	c1ccc2c(c1)Nc1ncccc1-n1c(-c3ccc(CNC4CCC4)cc3)nnc1-2 [Example 69, N-(4-(9H-benzo[f]pyrido[2,3-b][1,2,4]triazolo[4,3-d][1,4]diazepin-3-yl)benzyl)cyclobutanamine]
360 nM	O=C(Nc1ccc(-c2nnc3n2-c2cccnc2Nc2ccccc2-3)cc1)c1cc2ccccc2s1 [Example 42, N-(4-(9H-benzo[f]pyrido[2,3-b][1,2,4]triazolo[4,3-d][1,4]diazepin-3-yl)phenyl)benzo[b]thiophene-2-carboxamide]

The remaining lines, values behind:

Structure (SMILES)	IC50
Cc1cccc2c1Nc1ncccc1-n1c(-c3ccc(C4(N)CCC4)cc3)nnc1-2 [Example 218, 1-(4-(10-methyl-9H-benzo[f]pyrido[2,3-b][1,2,4]triazolo[4,3-d][1,4]diazepin-3-yl)phenyl)cyclobutanamine]	1400 nM
O=C(Cc1ccccc1)Nc1ccc(-c2nnc3n2-c2cccnc2Nc2ccccc2-3)cc1 [Example 49, N-(4-(9H-benzo[f]pyrido[2,3-b][1,2,4]triazolo[4,3-d][1,4]diazepin-3-yl)phenyl)-2-phenylacetamide]	240 nM
Cn1ccc(S(=O)(=O)NC2(c3ccc(-c4nnc5n4-c4cccnc4Nc4ccccc4-5)cc3)CCC2)n1 [Example 205, N-(1-(4-(9H-benzo[f]pyrido[2,3-b][1,2,4]triazolo[4,3-d][1,4]diazepin-3-yl)phenyl)cyclobutyl)-1-methyl-1H-pyrazole-3-sulfonamide]	640 nM
Cc1ccc(C(=O)N2CCN(Cc3ccc(-c4nnc5n4-c4cccnc4Nc4ccccc4-5)cc3)CC2)cc1 [Example 160, (4-(4-(9H-benzo[f]pyrido[2,3-b][1,2,4]triazolo[4,3-d][1,4]diazepin-3-yl)benzyl)piperazin-1-yl)(p-tolyl)methanone]	3000 nM
Cc1cccc(C(=O)N2CCN(Cc3ccc(-c4nnc5n4-c4cccnc4Nc4ccccc4-5)cc3)CC2)c1 [Example 136, (4-(4-(9H-benzo[f]pyrido[2,3-b][1,2,4]triazolo[4,3-d][1,4]diazepin-3-yl)benzyl)piperazin-1-yl)(m-tolyl)methanone]	1300 nM
OCC1CCN(Cc2ccc(-c3nnc4n3-c3cccnc3Nc3ccccc3-4)cc2)CC1 [Example 76, (1-(4-(9H-benzo[f]pyrido[2,3-b][1,2,4]triazolo[4,3-d][1,4]diazepin-3-yl)benzyl)piperidin-4-yl)methanol]	8300 nM
CC(C)(C)c1ccc(-c2nnc3n2-c2cccnc2Nc2ccccc2-3)cc1 [Example 7, 3-(4-(tert-butyl)phenyl)-9H-benzo[f]pyrido[2,3-b][1,2,4]triazolo[4,3-d][1,4]diazepine]	4700 nM
c1ccc2c(c1)Nc1ncccc1-n1c(-c3ccc(C4CCCN4)cc3)nnc1-2 (centres unmarked) [Example 196, 3-(4-(pyrrolidin-2-yl)phenyl)-9H-benzo[f]pyrido[2,3-b][1,2,4]triazolo[4,3-d][1,4]diazepine]	1100 nM
CC(C)(C)OC(=O)NC1(c2ccc(-c3nnc4n3-c3cccnc3Nc3ccccc3-4)cc2)CC1 [Example 221, tert-butyl (1-(4-(9H-benzo[f]pyrido[2,3-b][1,2,4]triazolo[4,3-d][1,4]diazepin-3-yl)phenyl)cyclopropyl)carbamate]	1400 nM
O=C(NCc1ccc(-c2nnc3n2-c2cccnc2Nc2ccccc2-3)cc1)c1ccc(F)cc1 [Example 95, N-(4-(9H-benzo[f]pyrido[2,3-b][1,2,4]triazolo[4,3-d][1,4]diazepin-3-yl)benzyl)-4-fluorobenzamide]	300 nM
O=C1NCN(c2ccccc2)C12CCN(Cc1ccc(-c3nnc4n3-c3cccnc3Nc3ccccc3-4)cc1)CC2 [Example 162, 8-(4-(9H-benzo[f]pyrido[2,3-b][1,2,4]triazolo[4,3-d][1,4]diazepin-3-yl)benzyl)-1-phenyl-1,3,8-triazaspiro[4.5]decan-4-one]	950 nM
O=S(=O)(CC1CCCCC1)NC1CCN(Cc2ccc(-c3nnc4n3-c3cccnc3Nc3ccccc3-4)cc2)CC1 [Example 148, N-(1-(4-(9H-benzo[f]pyrido[2,3-b][1,2,4]triazolo[4,3-d][1,4]diazepin-3-yl)benzyl)piperidin-4-yl)-1-cyclohexylmethanesulfonamide]	3400 nM
O=C(Nc1ccccc1)NC1(c2ccc(-c3nnc4n3-c3cccnc3Nc3ccccc3-4)cc2)CCC1 [Example 194, 1-(1-(4-(9H-benzo[f]pyrido[2,3-b][1,2,4]triazolo[4,3-d][1,4]diazepin-3-yl)phenyl)cyclobutyl)-3-phenylurea]	1200 nM
O=C(Nc1ccc(-c2nnc3n2-c2cccnc2Nc2ccccc2-3)cc1)c1ccc2c(c1)OCO2 [Example 47, N-(4-(9H-benzo[f]pyrido[2,3-b][1,2,4]triazolo[4,3-d][1,4]diazepin-3-yl)phenyl)benzo[d][1,3]dioxole-5-carboxamide]	53 nM
O=C(Nc1ccc(-c2nnc3n2-c2cccnc2Nc2ccccc2-3)cc1)c1ccc(F)c(F)c1 [Example 37, N-(4-(9H-benzo[f]pyrido[2,3-b][1,2,4]triazolo[4,3-d][1,4]diazepin-3-yl)phenyl)-3,4-difluorobenzamide]	150 nM
O=C(NCc1ccc(-c2nnc3n2-c2cccnc2Nc2ccccc2-3)cc1)Nc1ccccc1 [Example 107, 1-(4-(9H-benzo[f]pyrido[2,3-b][1,2,4]triazolo[4,3-d][1,4]diazepin-3-yl)benzyl)-3-phenylurea]	2900 nM
CC(=O)NC1CCN(Cc2ccc(-c3nnc4n3-c3cccnc3Nc3ccccc3-4)cc2)C1 (centres unmarked) [Example 86, N-(1-(4-(9H-benzo[f]pyrido[2,3-b][1,2,4]triazolo[4,3-d][1,4]diazepin-3-yl)benzyl)pyrrolidin-3-yl)acetamide]	3400 nM
NC1(c2ccc(-c3nnc4n3-c3cccnc3Nc3ccc(-c5ccccc5)cc3-4)cc2)CCC1 [Example 224, 1-(4-(12-phenyl-9H-benzo[f]pyrido[2,3-b][1,2,4]triazolo[4,3-d][1,4]diazepin-3-yl)phenyl)cyclobutanamine]	1200 nM
CN1c2ccccc2-c2nnc(-c3ccc4ccccc4c3)n2-c2ccccc21 [Example 14, hydrochloride]	67000 nM
CCCN(C)Cc1ccc(-c2nnc3n2-c2cccnc2Nc2ccccc2-3)cc1 [Example 90, N-(4-(9H-benzo[f]pyrido[2,3-b][1,2,4]triazolo[4,3-d][1,4]diazepin-3-yl)benzyl)-N-methylpropan-1-amine]	2500 nM
O=C(NCc1ccc(-c2nnc3n2-c2cccnc2Nc2ccccc2-3)cc1)c1ccco1 [Example 97, N-(4-(9H-benzo[f]pyrido[2,3-b][1,2,4]triazolo[4,3-d][1,4]diazepin-3-yl)benzyl)furan-2-carboxamide]	1100 nM
